Usually IC50 stands for the midpoint of a concentration-inhibition curve. Low readings indicate greater potency, high ones weaker potency.

Experiment [1] concerns 2008. The experiment is described as follows: Cell cycle arrest in human OV2008 cells assessed as accumulation at subG1 phase at 2 uM measured after overnight incubation by propidium iodide staining-based flow cytometry (reference value: 2.64%). It is filed as functional.
The subject of experiment [2] is 2008. The experiment in a line: Cell cycle arrest in human OV2008 cells assessed as accumulation at G2 phase at 2 uM measured after overnight incubation by propidium iodide staining-based flow cytometry (reference value: 26.9%). In kind it is functional. For orientation: In flow cytometry, cells or beads pass a laser one at a time.
The test system of experiment [3] is A2780. The experiment in a line: Cell cycle arrest in human A2780 cells assessed as accumulation at subG1 phase at 1 uM measured after overnight incubation by propidium iodide staining-based flow cytometry (reference value: 8.88%). In kind it is functional.
The test system of experiment [4] is 2008. The experiment is described as follows: Induction of apoptosis in human OV2008 cells assessed as cell shrinkage at 0.5 to 2 uM measured after overnight incubation by DAPI-staining based microscopy. It is filed as functional.
In experiment [5] the test system is HCT-116. The experiment in a line: Induction of apoptosis in human HCT116 cells assessed as late apoptotic cells at 1 uM measured after overnight incubation by mitotracker red/alexa fluor-488 Annexin V staining-based flow cytometry (reference value: 0%). In kind it is functional.
Experiment [6] relates to 2008. The experiment in a line: Induction of apoptosis in human OV2008 cells assessed as late apoptotic cells at 1 uM measured after overnight incubation by mitotracker red/alexa fluor-488 Annexin V staining-based flow cytometry (reference value: 0.255%). In kind it is functional.
In experiment [7] the test system is A2780. The experiment is described as follows: Induction of apoptosis in human A2780 cells assessed as necrotic cells at 2 uM measured after overnight incubation by mitotracker red/alexa fluor-488 Annexin V staining-based flow cytometry (reference value: 9.94%). It is filed as functional.
Experiment [8] has as its system HCT-116. The experiment in a line: Antiproliferative activity against dko deficient human HCT116 cells after 72 hrs by MTT assay. In kind it is functional, cell-based. The conditions noted are these: HCT-116, 72 h. A general note: Formazan colour is commonly taken as a measure of viable cells.
Experiment [9] relates to A2780. The experiment in a line: Induction of morphological changes in human A2780 cells at 0.1 to 3 uM after 68 hrs by microscopic method. In kind it is functional, cell-based.

Activity calls are given as the source filed them. The calls are words filed in the database; no cut-off is given here.

Regarding `COc1ccc(-c2nc(O)c3c4c(sc3n2)CCCC4)cc1`, the Activity with 2008 [1] is on record as 1.29%; with 2008 [2], 41.1%; in the experiment with A2780 [3], 7.99%; with HCT-116 [5], 0%; in the experiment on 2008 [6] it was 0.245%; in the experiment on A2780 [7], 5.77%. In addition, the outcome in the experiment on 2008 [4] and with A2780 [9] was Active. The IC50 in the experiment with HCT-116 [8] worked out at 1400 nM.

The record behind these values is ChEMBL document CHEMBL4130368, “Thienopyrimidine derivatives exert their anticancer efficacy via apoptosis induction, oxidative stress and mitotic catastrophe” (Eur J Med Chem, 2017).
